Reference: patent EP4707280A1, “1,4-CINEOLE DERIVATIVE AND INTERMEDIATE THEREOF, HERBICIDE CONTAINING SAID DERIVATIVE AS ACTIVE INGREDIENT, METHOD FOR USING HERBICIDE, AND METHOD FOR PREPARING AGROCHEMICAL COMPOSITION” (HOKKO CHEMICAL INDUSTRY CO., LTD., priority 2023, dated 2024)

Legend:
Assay type in all cases: in vivo
[1] = test system: Digitaria ciliaris; test: Test Example 8: herbicidal effect test by stem and leaf treatment in upland field (low dose); details: Digitaria ciliaris; 7.5 g per 10 ares; sprayed seven days after sowing, upland soil; 14 days after application; read-out: weed inhibition rate
[2] = test system: Echinochloa crus-galli; test: as above; details: Echinochloa crus-galli; 7.5 g per 10 ares; sprayed seven days after sowing, upland soil; 14 days after application; read-out: weed inhibition rate
[3] = test system: Monochoria vaginalis; test: Test Example 1: herbicidal effect test by soil application in paddy rice; details: Pontederia vaginalis, soil, 336 h; 120 g active ingredient per 10 ares; applied immediately after sowing, flooded pots; 14 days after application; read-out: weed inhibition rate
Method in brief: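 Pre-emergence test in puddled, flooded paddy soil (about 3 cm water), 30 seeds per weed sown at 0–1 cm depth in a glass greenhouse. Emulsifiable concentrate diluted in water and dropped onto the pots straight after sowing at 120 g a.i. per 10 ares. Weed inhibition (%) scored at 14 days, in duplicate.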

[4] = test system: Monochoria vaginalis; test: Test Example 5: herbicidal effect test by soil application in paddy rice (low dose); details: Pontederia vaginalis, 336 h, 7.5 g per 10 ares, applied immediately after sowing, flooded pots, 14 days after application, read-out: weed inhibition rate
Method in brief: (§1)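 Pots of puddled, fertilized paddy soil receive 30 seeds per species at 0–1 cm depth and are flooded to about 3 cm. The diluted emulsifiable concentrate is then dropped onto the water, delivering 7.5 g active ingredient per 10 ares. Greenhouse grown; herbicidal effect scored 14 days later, two replicates.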

[5] = test system: Scirpus juncoides; test: as above; details: Schoenoplectiella juncoides, 336 h, 7.5 g per 10 ares, applied immediately after sowing, flooded pots, 14 days after application, read-out: weed inhibition rate
Method in brief: as §1

[6] = test system: Monochoria vaginalis; test: Test Example 2: herbicidal effect test by application during growth period of paddy rice; details: Pontederia vaginalis; 120 g per 10 ares; applied seven days after sowing, flooded pots; 14 days after application; read-out: weed inhibition rate
Method in brief: (§2)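 Weeds sown into puddled, flooded paddy soil received a post-emergence water application of emulsifiable concentrate at 120 g active ingredient per 10 ares, seven days after sowing. Herbicidal effect was rated 14 days later as inhibition (%).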

[7] = test system: Echinochloa crus-galli var. formosensis; test: as above; details: Echinochloa crus-galli; 120 g per 10 ares; applied seven days after sowing, flooded pots; 14 days after application; read-out: weed inhibition rate
Method in brief: as §2

[8] = test system: Scirpus juncoides; test: as above; details: Schoenoplectiella juncoides; 120 g per 10 ares; applied seven days after sowing, flooded pots; 14 days after application; read-out: weed inhibition rate
Method in brief: as §2

[9] = test system: Digitaria ciliaris; test: Test Example 4: herbicidal effect test by stem and leaf treatment in upland field; details: Digitaria ciliaris; 120 g per 10 ares; sprayed seven days after sowing, upland soil; 14 days after application; read-out: weed inhibition rate
[10] = test system: Echinochloa crus-galli var. formosensis; test: Test Example 1: herbicidal effect test by soil application in paddy rice; details: Echinochloa crus-galli, soil, 336 h; 120 g active ingredient per 10 ares; applied immediately after sowing, flooded pots; 14 days after application; read-out: weed inhibition rate
Method in brief: (§3)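 Paddy soil in Wagner pots (1/10,000 acre), fertilized and puddled; 30 seeds per species sown at 0–1 cm, flooded to ~3 cm, greenhouse. Water-diluted emulsifiable concentrate dropped onto flooded pots right after sowing at 120 g active ingredient per 10 ares.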

[11] = test system: Scirpus juncoides; test: as above; details: Schoenoplectiella juncoides, soil, 336 h; 120 g active ingredient per 10 ares; applied immediately after sowing, flooded pots; 14 days after application; read-out: weed inhibition rate
Method in brief: as §3

CC(C)C12CC(OCc3ccccc3F)C(C)(CC1Br)O2 (stereo not shown) [1-1355, 5-bromo-2-[(2-fluorophenyl)methoxy]-1-methyl-4-isopropyl-7-oxabicyclo[2.2.1]heptane]
≥ 80%: inhibition at 75 g/ha [1] | inhibition at 75 g/ha [2] | pest or weed control at 1200 g/ha [3] | inhibition at 75 g/ha [4] | inhibition at 75 g/ha [5] | inhibition at 1200 g/ha [6] | inhibition at 1200 g/ha [7] | inhibition at 1200 g/ha [8] | inhibition at 1200 g/ha [9] | pest or weed control at 1200 g/ha [10] | pest or weed control at 1200 g/ha [11]

CC(C)[C@]12C[C@@H](OCc3ccccc3)[C@](C)(C[C@@H]1Br)O2 [1-15, (1S,2R,4R,5S)-5-bromo-1-methyl-2-phenylmethoxy-4-isopropyl-7-oxabicyclo[2.2.1]heptane]
≥ 80%: inhibition at 75 g/ha [1] | inhibition at 75 g/ha [2] | pest or weed control at 1200 g/ha [3] | inhibition at 75 g/ha [4] | inhibition at 75 g/ha [5] | inhibition at 1200 g/ha [6] | inhibition at 1200 g/ha [7] | inhibition at 1200 g/ha [8] | inhibition at 1200 g/ha [9] | pest or weed control at 1200 g/ha [10] | pest or weed control at 1200 g/ha [11]

CC(C)[C@]12C[C@@H](OCc3ccccc3F)[C@](C)(CC1OCC1CC1)O2 (mixture of isomers) [1-921, (1S,2R,4R,SR)-5-(cyclopropylmethoxy)-2-[(2-fluorophenyl)methoxy]-1-methyl-4-isopropyl-7-oxabicyclo[2.2.1]heptane]
≥ 80%: inhibition at 75 g/ha [1] | inhibition at 75 g/ha [2] | pest or weed control at 1200 g/ha [3] | inhibition at 75 g/ha [4] | inhibition at 75 g/ha [5] | inhibition at 1200 g/ha [6] | inhibition at 1200 g/ha [7] | inhibition at 1200 g/ha [8] | inhibition at 1200 g/ha [9] | pest or weed control at 1200 g/ha [10] | pest or weed control at 1200 g/ha [11]

CC(C)[C@]12C[C@@H](OCc3ccccc3Cl)[C@](C)(C[C@@H]1Br)O2 [1-20, (1S,2R,4R,5S)-5-bromo-2-[(2-chlorophenyl)methoxy]-1-methyl-4-isopropyl-7-oxabicyclo[2.2.1]heptane]
≥ 80%: inhibition at 75 g/ha [1] | inhibition at 75 g/ha [2] | pest or weed control at 1200 g/ha [3] | inhibition at 75 g/ha [4] | inhibition at 75 g/ha [5] | inhibition at 1200 g/ha [6] | inhibition at 1200 g/ha [7] | inhibition at 1200 g/ha [8] | inhibition at 1200 g/ha [9] | pest or weed control at 1200 g/ha [10] | pest or weed control at 1200 g/ha [11]

CC(C)[C@]12C[C@@H](OCc3ccccc3F)[C@](C)(CC1C)O2 (stereo partly drawn) [1-92, (1S,2R,4R)-2-((2-fluorobenzyl)oxy)-4-isopropyl-1,5-dimethyl-7-oxabicyclo[2.2.1]heptane]
≥ 80%: inhibition at 75 g/ha [1] | inhibition at 75 g/ha [2] | pest or weed control at 1200 g/ha [3] | inhibition at 75 g/ha [4] | inhibition at 75 g/ha [5] | inhibition at 1200 g/ha [6] | inhibition at 1200 g/ha [7] | inhibition at 1200 g/ha [8] | inhibition at 1200 g/ha [9] | pest or weed control at 1200 g/ha [10] | pest or weed control at 1200 g/ha [11]
